Data set [1] concerns IL-8. Briefly: IL-8 production in simulated EVLP cell culture model. It is filed as cell-based, human. The note with it: prolonged CIT (18 h) and simulated EVLP (12 h). The method, then:
A cell culture model was developed that simulates hypothermic lung preservation and reperfusion and was used to “perfuse” cells with EVLP perfusate, as shown in FIG. 6A. Culture medium of confluent cells was replaced with 4° C. lung preservation solution (Perfadex®) for 6 h or 18 h, and then “perfused” with Steen solution with and without GlutaMax.

A short description of data set [2]: pH of Steen solution after addition of nutrients. It is filed as physicochemical. The note with it: nutrient added to Steen solution (GlutaMax at 4 mM; amino acids at clinically recommended concentrations). Here is the method:
Amino acids are essential nutrients for cell proliferation. In rat lungs, the lack of amino acids and insulin in perfusate reduced protein synthesis, while vitamin C prolonged the viability and stability of perfused rat lungs by slowing the decline of mitochondrial activity. Therefore, clinically recommended concentrations of amino acids and/or vitamins were added in Steen solution to improve its performance.

Data set [3] concerns human pulmonary microvascular endothelial cells (HPMEC). Briefly: Basic cellular function of cells exposed to Steen solution and its modifications (IncuCyte Live Cell Analysis). The data set is classed as cell-based. The note with it: for apoptosis / cell migration: GlutaMax added at 4 mM to Steen solution, vs Steen solution. The source says: (§1) Methods: Human pulmonary microvascular endothelial cells (HPMEC) and human lung epithelial cells (BEAS-2B) were used to determine the effects of Steen solution components on basic cellular function. Cell confluence, apoptosis and migration were visualized and quantified by IncuCyte® Live Cell Analysis System in real-time. A simulated EVLP cell culture model was established by replacing regular culture medium with cold lung preservation solution and followed by “perfusion” with normothermic Steen solution or its modifications. Cell apoptosis was quantified. Porcine lung EVLP was performed using Steen solution with added nutrients.
(§2) The effects of glutamine in Steen solution on mitochondrial respiration and glycolytic function were examined using a Seahorse XFe analyzer.

The subject of data set [4] is human lung epithelial cells (BEAS-2B). Described as above. The data set is classed as cell-based. The note with it: for apoptosis / cell migration: GlutaMax added at 4 mM to Steen solution, vs Steen solution.
Source text: as §1, §2

Data set [5] concerns pig lung. Briefly: Pig lung EVLP with GlutaMax-modified Steen solution. The note with it: for lung function: compared with historical controls. The source says: Methods: Human pulmonary microvascular endothelial cells (HPMEC) and human lung epithelial cells (BEAS-2B) were used to determine the effects of Steen solution components on basic cellular function. Cell confluence, apoptosis and migration were visualized and quantified by IncuCyte® Live Cell Analysis System in real-time. A simulated EVLP cell culture model was established by replacing regular culture medium with cold lung preservation solution and followed by “perfusion” with normothermic Steen solution or its modifications. Cell apoptosis was quantified. Porcine lung EVLP was performed using Steen solution with added nutrients. […] During the experiment, EVLP was extended as long as the dynamic lung compliance was greater than 15 ml/cmH2O. […] Pig lungs were preserved at 4° C. followed by EVLP. […] Lung function assessment: Perfusate was sampled regularly. PO2, PCO2, pH, Na^+, K^+, Ca^2+, Cl^−, glucose and lactate were determined via a blood gas analyzer (see FIG. 17; Table 3). Pulmonary function was monitored continuously and assessed every hour, including static and dynamic compliances, peak airway inspiratory pressure, pulmonary artery pressure and pulmonary vascular resistance (PVR). Lung tissue biopsies were collected before, during and at the end of EVLP. Lung wet-to-dry ratio was measured as an indicator of lung edema.

In data set [6] the test system is HPMEC. Briefly: Simulated EVLP cell culture model (cold Perfadex preservation, then perfusion with Steen solution with and without GlutaMax). It is filed as cell-based, human. The note with it: for total GSH production: fluorometric assay kit; for apoptosis: GlutaMax 0.5 mM to 4 mM in Steen solution, after 6 h or 18 h cold preservation, simulated EVLP. The text has this: (§3) Methods: Human pulmonary microvascular endothelial cells (HPMEC) and human lung epithelial cells (BEAS-2B) were used to determine the effects of Steen solution components on basic cellular function. Cell confluence, apoptosis and migration were visualized and quantified by IncuCyte® Live Cell Analysis System in real-time. A simulated EVLP cell culture model was established by replacing regular culture medium with cold lung preservation solution and followed by “perfusion” with normothermic Steen solution or its modifications. Cell apoptosis was quantified. Porcine lung EVLP was performed using Steen solution with added nutrients. A cell culture model was developed that simulates hypothermic lung preservation and reperfusion and was used to “perfuse” cells with EVLP perfusate, as shown in FIG. 6A. Culture medium of confluent cells was replaced with 4° C. lung preservation solution (Perfadex®) for 6 h or 18 h, and then “perfused” with Steen solution with and without GlutaMax. […] Human lung endothelial and epithelial cells were subjected to simulated EVLP treated with Steen solution with and without GlutaMax. GSH concentration in cell culture was measured with a fluorometric assay kit from BioVision.

For data set [7], the system named is BEAS-2B. The data set is described as above. It is filed as cell-based, human. The note with it: for total GSH production: fluorometric assay kit; for apoptosis: GlutaMax 0.5 mM to 4 mM in Steen solution, after 6 h or 18 h cold preservation, simulated EVLP.
Source text: as §3

Setting [8] is: pig lung EVLP, first 18 h, compared with historical control.
The mark [9] stands for this setting: CIT 6 h and EVLP 4 h, listed as GlutaMAX.
[10] abbreviates: different concentrations of Albumin (1, 2, 4, 7%) and Dextran 40 (5, 25, 50 g/L) in Steen solution.

“Also recorded” adds a separate entry of the source. Where a SMILES comes first, the peptide text is derived from it.

On to `C[C@H](N)C(=O)N[C@@H](CCC(N)=O)C(=O)O` [GlutaMax, L-alanyl-L-glutamine] (H-Ala-Gln-OH), for which, in data set [1], the IL-8 production entry is given as “inhibited IL-8 production”. For the same compound, in data set [2], the pH entry is listed as “maintained in the physiological range”. For the same compound, the apoptosis entry in data set [3] is reported as “reduced apoptosis”; in data set [3] (listed as L-alanyl-L-glutamine), “significantly inhibited cell apoptosis”; in data set [4], “reduced apoptosis”; in data set [4] (listed as L-alanyl-L-glutamine), “significantly inhibited cell apoptosis”; in data set [6] it was “reduced apoptosis”; in data set [6] (listed as Glutamax), “reduced apoptosis”. Further, the apoptosis result in data set [6] (listed as gln) is “significantly reduced apoptosis”; in data set [7], “reduced apoptosis”; in data set [7] (listed as Glutamax) it was “reduced apoptosis”; in data set [7] (listed as gln), “significantly reduced apoptosis”. The cell migration result in data set [3], in data set [3] (listed as L-alanyl-L-glutamine), in data set [4] and in data set [4] (listed as L-alanyl-L-glutamine) was “improved cell migration” in each case. Besides, the lung function result in data set [5] (pig lung EVLP) is “improved lung function”; in data set [5] (pig lung EVLP, listed as gln) it was “stable lung function”. Also, the “delta PO2” value in data set [5] (setting [8]) is on record as “higher”. Besides, the dynamic compliance result in data set [5] (setting [8]) is “higher”. For the same compound, the peak airway pressure result in data set [5] (setting [8]) is on record as “lower”. In addition, the EVLP period entry in data set [5] (pig lung EVLP, gln added to Steen solution) is “significantly extend”. The compound further registered an EVLP duration reached in data set [5] (pig lung, EVLP extended as long as dynamic lung compliance greater than 15 ml/cmH2O) of 36 h. For the same compound, the “HSP70 production (protein expression in cell lysates)” value in data set [6] (CIT 6 h and EVLP 4 h) was “promoted HSP70 production; also recorded: enhanced HSP70 production”; in data set [7] (CIT 6 h and EVLP 4 h), “promoted HSP70 production; also recorded: enhanced HSP70 production”. In addition, the “total GSH production” value in data set [6] (CIT 6 h and EVLP 4 h) is recorded as “enhanced total GSH production”; in data set [6] (setting [9]) it was “enhanced Total GSH production”; in data set [7] (CIT 6 h and EVLP 4 h) it was “enhanced total GSH production”; in data set [7] (setting [9]), “enhanced Total GSH production”.

Regarding Dextran 40, the “cell confluence, apoptosis and migration” value in data set [3] (setting [10]) and in data set [4] (setting [10]) was “no major differences” each time.

The record behind these values is patent publication US20230148588A1, “METHODS, COMPOSITIONS, AND SYSTEMS FOR ENHANCING EX-VIVO ORGAN PERFUSION” (University Health Network, priority 2020, published 2023).
